Test results: PubChem BioAssay (NCI)
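Protocol summary: plate cells (96-well), add compound at 5 concentrations, incubate 48 h, interpolate endpoints linearly. TGI denotes the concentration required for complete inhibition of growth.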

Legend:
Experiment in all cases: NCI-60 cell line screen, 48 h
ACHN renal = tested on: ACHN renal
CAKI-1 renal = tested on: CAKI-1 renal
OVCAR-8 ovarian = tested on: OVCAR-8 ovarian
MDA-MB-435 = tested on: MDA-MB-435
NCI-H522 lung = tested on: NCI-H522 lung
HCC-2998 colon = tested on: HCC-2998 colon
A498 renal = tested on: A498 renal
PC-3 prostate = tested on: PC-3 prostate
SNB-75 CNS = tested on: SNB-75 CNS
EKVX NSCLC = tested on: EKVX NSCLC
MOLT-4 leukemia = tested on: MOLT-4 leukemia
RPMI-8226 leukemia = tested on: RPMI-8226 leukemia
SK-MEL-5 melanoma = tested on: SK-MEL-5 melanoma
UO-31 renal = tested on: UO-31 renal
SK-OV-3 ovarian = tested on: SK-OV-3 ovarian
MALME-3M melanoma = tested on: MALME-3M melanoma
M14 melanoma = tested on: M14 melanoma
SF-539 CNS = tested on: SF-539 CNS
NCI-H23 lung = tested on: NCI-H23 lung
UACC-257 melanoma = tested on: UACC-257 melanoma
NCI/ADR-RES ovarian = tested on: NCI/ADR-RES ovarian
HOP-92 NSCLC = tested on: HOP-92 NSCLC
OVCAR-5 ovarian = tested on: OVCAR-5 ovarian
TK-10 renal = tested on: TK-10 renal
SF-295 CNS = tested on: SF-295 CNS
NCI-H460 lung = tested on: NCI-H460 lung
COLO 205 colon = tested on: COLO 205 colon
HOP-62 NSCLC = tested on: HOP-62 NSCLC
T-47D breast = tested on: T-47D breast
U251 CNS = tested on: U251 CNS
UACC-62 melanoma = tested on: UACC-62 melanoma
BT-549 breast = tested on: BT-549 breast
HCT-15 colon = tested on: HCT-15 colon
HL-60(TB) leukemia = tested on: HL-60(TB) leukemia
SK-MEL-2 melanoma = tested on: SK-MEL-2 melanoma
MDA-MB-231 breast = tested on: MDA-MB-231 breast
HCT-116 colon = tested on: HCT-116 colon
786-0 renal = tested on: 786-0 renal
MCF7 breast = tested on: MCF7 breast
KM12 colon = tested on: KM12 colon
HS 578T breast = tested on: HS 578T breast
A549 NSCLC = tested on: A549 NSCLC
SW-620 colon = tested on: SW-620 colon
OVCAR-4 ovarian = tested on: OVCAR-4 ovarian
NCI-H226 lung = tested on: NCI-H226 lung
RXF 393 renal = tested on: RXF 393 renal
SF-268 CNS = tested on: SF-268 CNS
HT29 colon = tested on: HT29 colon
DU-145 prostate = tested on: DU-145 prostate
SNB-19 CNS = tested on: SNB-19 CNS
SR leukemia = tested on: SR leukemia
OVCAR-3 ovarian = tested on: OVCAR-3 ovarian

Measured: TGI

N[C@]1(C(=O)O)C[C@@H]2C(Br)=NO[C@@H]2C1
> 100 µM: all assays above
